Reference: patent publication US5834461A, “Tricyclic benzazepine vasopressin antagonists” (American Cyanamid Company, priority 1997, dated 1998)

Experiments:
[1] = target: T1, vasopressin V1 receptor subtype in human platelet membranes (Homo sapiens, UniProt P37288); assay: Binding to Vasopressin V1 Receptor Subtype in Human Platelet Membranes; conditions: for IC50: human platelet V1 (*)
T1 construct: tissue Hudson Valley Blood Services; host or cells: human blood platelets (frozen platelet rich plasma)
Procedure: (a) Platelet Membrane Preparation:
Frozen platelet rich plasma (PRP), received from the Hudson Valley Blood Services, are thawed to room temperature. (Platelet Source: Hudson Valley Blood Services, Westchester Medical Center, Valhalla, N.Y.). The tubes containing the PRP are centrifuged at 16,000×g for 10 min. at 4° C. and the supernatant fluid discarded. The platelets resuspended in an equal volume of 50.0 mM Tris.HCl, pH 7.5 containing 120 mM NaCl and 20.0 mM EDTA. The suspension is recentrifuged at 16,000×g for 10 min. This washing step is repeated one more time. The wash discarded and the lysed pellets homogenized in low ionic strength buffer of Tris.HCl, 5.0 mM, pH 7.5 containing 5.0 mM EDTA. The homogenate is centrifuged at 39,000×g for 10 min. The resulting pellet is resuspended in Tris.HCl buffer, 70.0 mM, pH 7.5 and recentrifuged at 39,000×g for 10 min. The final pellet is resuspended in 50.0 mM Tris.HCl buffer pH 7.4 containing 120 mM NaCl and 5.0 mM KCl to give 1.0-2.0 mg protein per ml of suspension.
(b) Binding to Vasopressin V1 Receptor Subtype in Human Platelet Membranes:
In wells of a 96 well format microtiter plate, add 100 μl of 50.0 mM Tris.HCl buffer containing 0.2% BSA and a mixture of protease inhibitors (aprotinin, leupeptin etc.). Then add 20 μl of [^3 H]Ligand (Manning or Arg^8 Vasopressin), to give final concentrations ranging from 0.01 to 10.0 nM. Initiate the binding by adding 80.0 μl of platelet suspension (approx. 100 μg protein). Mix all reagents by pipetting the mixture up and down a few times. Non specific binding is measured in the presence of 1.0 μM of unlabeled ligand (Manning or Arg^8 Vasopressin). Let the mixture stand undisturbed at room temperature for ninety (90) min. Upon this time, rapidly filter off the incubate under vacuum suction over GF/B filters, using a Brandel Harvester. The radioactivity caught on the filter disks is determined by the addition of liquid scintillant and counting in a liquid scintillator.

[2] = target: T2, human V2 vasopressin receptor (Homo sapiens, UniProt P30518); assay: Binding to Membranes of Mouse Fibroblast Cell Line (LV-2) Transfected with the cDNA Expressing the Human V2 Vasopressin Receptor; conditions: LV-2 cells
T2 construct: expressed in transfected cells; host or cells: mouse fibroblast cell line LV-2
Procedure: Flasks of 175 ml capacity, containing attached cells grown to confluence, are cleared of culture medium by aspiration. The flasks containing the attached cells are rinsed with 2×5 ml of phosphate buffered saline (PBS) and the liquid aspirated off each time. Finally, 5 ml of an enzyme free dissociation Hank's based solution (Specialty Media, Inc., Lafayette, N.J.) is added and the flasks are left undisturbed for 2 min. The content of all flasks is poured into a centrifuge tube and the cells pelleted at 300×g for 15 min. The Hank's based solution is aspirated off and the cells homogenized with a polytron at setting #6 for 10 sec in 10.0 mM Tris.HCl buffer, pH 7.4 containing 0.25M sucrose and 1.0 mM EDTA. The homogenate is centrifuged at 1500×g for 10 min to remove ghost membranes. The supernatant fluid is centrifuged at 100,000×g for 60 min to pellet the receptor protein. Upon completion, the pellet is resuspended in a small volume of 50.0 mM Tris.HCl buffer, pH 7.4. The protein content is determined by the Lowry method and the receptor membranes are suspended in 50.0 mM Tris.HCl buffer containing 0.1 mM phenylmethylsulfonylfluoride (PMSF) and 0.2% bovine serum albumin (BSA) to give 2.5 mg receptor protein per ml of suspension.
For binding experiments, the following is added in μl volume to wells of a 96 well format of a microtiter plate: 100.0 μl of 100.0 mM Tris.HCl buffer containing 0.2% heat inactivated BSA, 10.0 mM MgCl2 and a mixture of protease inhibitors: leupeptin, 1.0 mg %; aprotinin, 1.0 mg %; 1,10-phenanthroline, 2.0 mg %; trypsin inhibitor, 10.0 mg % and 0.1 mM PMSF., 20.0 μl of [^3 H] Arginine^8, vasopressin (S.A. 75.0 Ci/mmole) at 0.8 nM and the reaction initiated by the addition of 80.0 μl of tissue membranes ([…]).
The plates are left undisturbed on the bench top for 120 min to reach equilibrium. Non specific binding is assessed in the presence of 1.0 μM of unlabeled ligand, added in 20 μl volume. For test compounds, these are solubilized in 50% dimethylsulfoxide (DMSO) and added in 20.0 μl volume to a final incubation volume of 200 μl. Upon completion of binding, the content of each well is filtered off, using a Brandel® cell Harvester (Gaithersburg, Md.). The radioactivity trapped on the filter disk by the ligand-receptor complex is assessed by liquid scintillation counting in a Packard LS Counter, with an efficiency of 65% for tritium.

T2 sequence (P30518 whole entry): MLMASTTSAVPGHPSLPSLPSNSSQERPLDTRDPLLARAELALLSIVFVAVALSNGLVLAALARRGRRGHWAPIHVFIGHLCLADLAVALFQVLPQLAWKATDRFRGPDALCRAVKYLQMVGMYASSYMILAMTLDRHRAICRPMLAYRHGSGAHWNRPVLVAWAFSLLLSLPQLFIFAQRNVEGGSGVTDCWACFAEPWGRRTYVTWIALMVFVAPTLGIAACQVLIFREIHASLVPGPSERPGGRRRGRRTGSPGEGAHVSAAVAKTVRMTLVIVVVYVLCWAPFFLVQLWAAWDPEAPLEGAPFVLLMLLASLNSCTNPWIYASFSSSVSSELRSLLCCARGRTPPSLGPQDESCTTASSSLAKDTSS
T1 sequence (P37288 whole entry): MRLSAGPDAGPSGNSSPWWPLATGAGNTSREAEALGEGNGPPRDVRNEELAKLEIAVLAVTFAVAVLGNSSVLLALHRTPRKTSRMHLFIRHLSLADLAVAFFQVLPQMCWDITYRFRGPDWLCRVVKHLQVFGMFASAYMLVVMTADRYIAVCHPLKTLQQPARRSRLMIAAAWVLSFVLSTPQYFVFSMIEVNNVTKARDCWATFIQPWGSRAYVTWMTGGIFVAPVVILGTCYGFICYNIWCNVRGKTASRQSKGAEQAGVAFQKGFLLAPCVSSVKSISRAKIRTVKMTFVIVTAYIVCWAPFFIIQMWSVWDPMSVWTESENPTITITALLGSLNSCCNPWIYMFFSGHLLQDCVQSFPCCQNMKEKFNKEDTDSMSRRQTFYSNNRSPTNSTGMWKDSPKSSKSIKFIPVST

| Structure (SMILES) | IC50 [1] [nM] | IC50 [2] [nM] | inhibition at 10 µM ([1]; 1.5 h, 10 μM, human platelet (*), read-out: *V1, % at concentration in brackets) [%] |
| --- | --- | --- | --- |
| COc1cc(C(=O)N2Cc3ccccc3Cc3ccccc32)ccc1NC(=O)c1ccccc1C [Example 257, N-[4-[(6,11-Dihydro-5H-dibenz[b,e]azepin-5-yl)-carbonyl]-2-methoxyphenyl]-2-methylbenzamide] | 16 | 20 | – |
| COc1cc(C(=O)N2Cc3ccccc3Cc3ccccc32)ccc1NC(=O)c1ccc(Cl)cc1Cl [Example 263, N-[4-[(6,11-Dihydro-5H-dibenz[b,e]azepin-5-yl)-carbonyl]-2-methoxyphenyl]-2,4-dichlorobenzamide] | 430 | 47 | – |
| Cc1nc2c(s1)CCN(C(=O)c1ccc(NC(=O)c3ccc(Cl)cc3Cl)cc1)c1ccccc1-2 [Example 455, N-[4-(4,5-Dihydro-2-methyl-6H-thiazolo[5,4-d][1]-benzazepin-6-yl)carbonyl1phenyl]-2,4-dichlorobenzamide] | 250 | 100 | – |
| COc1cc(C(=O)N2Cc3ccccc3Cc3ccccc32)ccc1NC(=O)c1cc(F)ccc1C [Example 261, N-[4-[(6,11-Dihydro-5H-dibenz[b,e]azepin-5-yl)-carbonyl]-2-methoxyphenyl]-2-methyl-5-fluorobenzamide] | 21 | 16 | – |
| Cc1c(F)cccc1C(=O)Nc1ccc(C(=O)N2Cc3ccccc3Cc3ccccc32)cc1Cl [Example 262, N-[4-[(6,11-Dihydro-5H-dibenz[b,e]azepin-5-yl)-carbonyl]-2-chlorophenyl]-2-methyl-3-fluorobenzamide] | 620 | 250 | – |
| CC(C)COc1ccc([N+](=O)[O-])cc1C(=O)Nc1ccc(C(=O)N2Cc3ccccc3Cc3ccccc32)cc1 [Example 453] | – | – | 14 |

More lines, now with the values ahead:

| IC50 [1] [nM] | IC50 [2] [nM] | inhibition at 10 µM ([1]; 1.5 h, 10 μM, human platelet (*), read-out: *V1, % at concentration in brackets) [%] | Structure (SMILES) |
| --- | --- | --- | --- |
| 150 | 2.2 | – | Cc1ccc(F)cc1C(=O)Nc1ccc(C(=O)N2CCc3c[nH]nc3-c3ccccc32)c(Cl)c1 [Example 581] |
| 28 | – | – | Cc1ccc(F)cc1C(=O)Nc1ccc(C(=O)N2CCc3c[nH]nc3-c3ccccc32)cc1 [Example 584, N-[4-[(4.5-Dihydropyrazolo[4,3-d][1]benzazepin-6(2H)-yl)carbonyl]phenyl]-5-fluoro-2-methylbenzamide] |
| 90 | 73 | – | Cc1nc2c(s1)CCN(C(=O)c1ccc(NC(=O)c3cc(F)ccc3C)cc1)c1ccccc1-2 [Example 534] |
